Assay: xn = mol fraction of the nth substance listed
Details: 100 kPa, Liquid; for viscosity: Capillary tube (Ostwald / Ubbelohde) method; for speed of sound: Frequency=2 MHz, Linear variable-path acoustic interferometer; for mass density: Vibrating tube method

Nc1cccc(Cl)c1 [3-chlorobenzenamine] + Clc1ccccc1
Details	mass density [kg/m3]	speed of sound [m/s]	viscosity [mPa·s]
303.15 K, x1 = 0.0895	1106.11	1265.6	1.126
303.15 K, x1 = 0.1802	1116.69	1284.1	1.516
303.15 K, x1 = 0.2935	1129.74	1308.9	1.975
303.15 K, x1 = 0.3821	1139.77	1329.6	2.317
303.15 K, x1 = 0.4956	1152.34	1358.1	2.738
303.15 K, x1 = 0.5823	1161.75	1381.5	3.046
303.15 K, x1 = 0.6923	1173.48	1413.3	3.417
303.15 K, x1 = 0.8012	1184.88	1447.5	3.756
303.15 K, x1 = 0.8856	1193.58	1476	3.991
303.15 K, x1 = 1	1205.32	1517.5	4.255
308.15 K, x1 = 0.0895	1100.43	1243.5	1.059
308.15 K, x1 = 0.1802	1111.15	1262.3	1.418
308.15 K, x1 = 0.2935	1124.32	1287.4	1.835
308.15 K, x1 = 0.3821	1134.43	1308.4	2.145
308.15 K, x1 = 0.4956	1147.15	1337.4	2.522
308.15 K, x1 = 0.5823	1156.68	1361.3	2.797
308.15 K, x1 = 0.6923	1168.55	1393.9	3.126
308.15 K, x1 = 0.8012	1180.09	1429	3.421
308.15 K, x1 = 0.8856	1188.91	1458.3	3.623
308.15 K, x1 = 1	1200.75	1501.2	3.842
313.15 K, x1 = 0.0895	1095.5	1223.6	0.9961
313.15 K, x1 = 0.1802	1106.27	1242.2	1.322
313.15 K, x1 = 0.2935	1119.45	1267.1	1.697
313.15 K, x1 = 0.3821	1129.56	1288	1.972
313.15 K, x1 = 0.4956	1142.29	1316.8	2.306
313.15 K, x1 = 0.5823	1151.83	1340.5	2.548
313.15 K, x1 = 0.6923	1163.77	1373.1	2.839
313.15 K, x1 = 0.8012	1175.35	1408.2	3.097
313.15 K, x1 = 0.8856	1184.21	1437.5	3.264
313.15 K, x1 = 1	1196.02	1480.3	3.43
318.15 K, x1 = 0.0895	1090.31	1198.7	0.9397
318.15 K, x1 = 0.1802	1101.12	1217.7	1.238
318.15 K, x1 = 0.2935	1114.34	1243.1	1.57
318.15 K, x1 = 0.3821	1124.49	1264.5	1.808
318.15 K, x1 = 0.4956	1137.26	1294.2	2.098
318.15 K, x1 = 0.5823	1146.85	1318.8	2.308
318.15 K, x1 = 0.6923	1158.87	1352.6	2.557
318.15 K, x1 = 0.8012	1170.53	1389.2	2.773
318.15 K, x1 = 0.8856	1179.42	1419.9	2.908
318.15 K, x1 = 1	1191.25	1464.8	3.022

Nc1cccc(Cl)c1 [3-chlorobenzenamine] + O=[N+]([O-])c1ccccc1
Details	mass density [kg/m3]	speed of sound [m/s]	viscosity [mPa·s]
303.15 K, x1 = 0.0812	1194.97	1445	1.938
303.15 K, x1 = 0.1725	1196.57	1452.6	2.253
303.15 K, x1 = 0.2623	1198.01	1460	2.537
303.15 K, x1 = 0.3725	1199.59	1468.9	2.863
303.15 K, x1 = 0.4854	1201	1478	3.179
303.15 K, x1 = 0.5896	1202.12	1486.4	3.456
303.15 K, x1 = 0.6785	1202.96	1493.5	3.679
303.15 K, x1 = 0.7825	1203.81	1501.6	3.915
303.15 K, x1 = 0.8905	1204.59	1509.8	4.117
303.15 K, x1 = 1	1205.32	1517.5	4.255
308.15 K, x1 = 0.0812	1189.92	1427.2	1.787
308.15 K, x1 = 0.1725	1191.59	1435	2.079
308.15 K, x1 = 0.2623	1193.07	1442.5	2.34
308.15 K, x1 = 0.3725	1194.69	1451.6	2.637
308.15 K, x1 = 0.4854	1196.16	1460.9	2.922
308.15 K, x1 = 0.5896	1197.35	1469.4	3.168
308.15 K, x1 = 0.6785	1198.25	1476.7	3.362
308.15 K, x1 = 0.7825	1199.18	1485	3.565
308.15 K, x1 = 0.8905	1200.03	1493.4	3.734
308.15 K, x1 = 1	1200.75	1501.2	3.842
313.15 K, x1 = 0.0812	1185.37	1409.1	1.666
313.15 K, x1 = 0.1725	1187.04	1416.6	1.935
313.15 K, x1 = 0.2623	1188.49	1423.8	2.167
313.15 K, x1 = 0.3725	1190.08	1432.6	2.427
313.15 K, x1 = 0.4854	1191.52	1441.5	2.674
313.15 K, x1 = 0.5896	1192.7	1449.8	2.889
313.15 K, x1 = 0.6785	1193.61	1456.8	3.059
313.15 K, x1 = 0.7825	1194.55	1465	3.234
313.15 K, x1 = 0.8905	1195.37	1473	3.369
313.15 K, x1 = 1	1196.02	1480.3	3.43
318.15 K, x1 = 0.0812	1179.19	1392.1	1.542
318.15 K, x1 = 0.1725	1181	1399.7	1.787
318.15 K, x1 = 0.2623	1182.58	1407	1.992
318.15 K, x1 = 0.3725	1184.35	1415.8	2.218
318.15 K, x1 = 0.4854	1185.97	1424.9	2.43
318.15 K, x1 = 0.5896	1187.32	1433.4	2.615
318.15 K, x1 = 0.6785	1188.37	1440.7	2.755
318.15 K, x1 = 0.7825	1189.5	1449.1	2.902
318.15 K, x1 = 0.8905	1190.49	1457.3	3.004
318.15 K, x1 = 1	1191.25	1464.8	3.022

Reference: the NIST ThermoML archive (doi:10.1016/j.jct.2016.05.015)
